A word on the Ki: it is a dissociation constant, usually derived from enzyme kinetics or from competition with a known ligand. Broadly, the melting point is the temperature, or range, at which the solid turns liquid.

This is an account of results in patent publication US7112585B2, “Pyrimidine derivatives as corticotropin releasing factor inhibitors” (Bristol-Myers Squibb Company, priority 2003, dated 2006).

In data set [1] the target is T1, cloned human CRF-R1 receptors (Homo sapiens, UniProt P34998).
T1 construct: the coding region was amplifies by PCR from start to stop codons; expressed in transfected cells; host or cells: 293EBNA (HEK 293 EBNA-1) cells, episomal vector phchCRFR, hygromycin-selected pool; membranes
T1 sequence (P34998 24-415): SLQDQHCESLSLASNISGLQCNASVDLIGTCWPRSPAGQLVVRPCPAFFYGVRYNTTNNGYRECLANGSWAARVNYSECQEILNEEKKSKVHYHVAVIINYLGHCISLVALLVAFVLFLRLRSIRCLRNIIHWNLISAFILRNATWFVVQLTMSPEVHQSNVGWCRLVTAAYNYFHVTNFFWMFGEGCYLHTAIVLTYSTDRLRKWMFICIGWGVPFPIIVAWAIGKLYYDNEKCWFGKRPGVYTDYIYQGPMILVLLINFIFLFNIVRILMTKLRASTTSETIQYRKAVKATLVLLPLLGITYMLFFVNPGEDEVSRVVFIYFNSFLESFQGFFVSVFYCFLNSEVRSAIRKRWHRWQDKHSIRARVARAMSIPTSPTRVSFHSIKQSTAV
In words: CRF-R1 Receptor Binding Assay (inhibition of 125I-ovine-CRF binding to cell membranes). On the set-up: key to activity: a: Ki≦100 nM; b: 100 nM<Ki≦500 nM; c: 500 nM<Ki≦5,000 nM; activity reported in percent inhibition at 10 μM. Conditions: CRF assays; class d = activity only as percent inhibition at 10 μM (value not given). The source says: CRF-R1 Receptor Binding Assay for the Evaluation of Biological Activity
The following is a description of the isolation of cell membranes containing cloned human CRF-R1 receptors for use in a standard binding assay as well as a description of the assay itself.
Messenger RNA was isolated from human hippocampus. The mRNA was isolated from human hippocampus. The mRNA was reverse transcribed using oligo (dt) 12–18 and the coding region was amplifies by PCR from start to stop codons. The resulting PCR fragment was cloned into the EcORV site of pGEMV, from whence the insert was reclaimed using XhoI+XbaI and cloned into the XhoI+XbaI sites of vector pm3as (which contains a CMV promoter, the SV′t′ splice and early poly A signals, an Eptein-Barr viral origin of replication, and a hygromycin selectable marker). The resulting expression vector, called phchCRFR was transfected in 293EBNA cells and cells retaining the episome were selected in the presence of […] hygromycin. Cells surviving 4 weeks of selection in hygromycin were pooled, adapted to growth in suspension and used to generate membranes for the binding assay described below. Individual aliquots containing approximately 1×10^8 of the suspended cells were then centrifuged to form a pellet and frozen. For the binding assay a frozen pellet described above containing 293EBNA cells transfected with hCRFR1 receptors is homogenized in 10 mL of ice cold tissue buffer (50 mM HEPES buffer pH 7.0, containing 10 MM MgCl2, 2 mM EGTA, 1 μg/mL apotinin, 1 μg/mL leupeptin and 1 μg/mL pepstatin). The homoginate is centrifuged at 40,000×g for 12 min and the resulting pellet rehomogenized in 10 mL of tissue buffer. After another centrifugation at 40,000×g for 12 min, the pellet is resuspended to a protein concentration of 360 μg/mL to be used in the assay.
Binding assays are performed in 96 well plates; each well having a 300 μL capacity. To each well is added 50 μL of test drug dilutions (final concentration of drugs range from 10^−10–10^−5 M), 100 μL of ^125I-ovine-CRF (^125I-o-CRF) (final concentration 150 pM) and 150 μL of the cell homoginate described above. Plates are then allowed to incubate at room temperature for 2 hours before filtering the incubate over GF/F filters (presoaked with 0.3% polyethyleneimine) using an appropriate cell harvester. Filters are rinsed 2 times with ice cold assay buffer before removing individual filters and assessing them for radioactivity on a gamma counter.
Curves of the inhibition of ^125I-o-CRF binding to cell membranes at various dilutions of test drug are analyzed by the iterative curve fitting program LIGAND [P. J. Munson and D. Rodbard, Anal. Biochem., 107:220 (1980), which provides Ki values for inhibition which are then used to assess biological activity. […]
Messenger RNA was isolated from human hippocampus. The mRNA was isolated from human hippocampus. The mRNA was reverse transcribed using oligo (dt) 12–18 and the coding region was amplifies by PCR from start to stop codons. The resulting PCR fragment was cloned into the EcORV site of pGEMV, from whence the insert was reclaimed using XhoI+XbaI and cloned into the XhoI+XbaI sites of vector pm3as (which contains a CMV promoter, the SV′t′ splice and early poly A signals, an Eptein-Barr viral origin of replication, and a hygromycin selectable marker). The resulting expression vector, called phchCRFR was transfected in 293EBNA cells and cells retaining the episome were selected in the presence of […] hygromycin. Cells surviving 4 weeks of selection in hygromycin were pooled, adapted to growth in suspension and used to generate membranes for the binding assay described below. […]
A frozen pellet described above containing 293EBNA cells transfected with hCRFR1 receptors or the rat frontal cortex tissue dissected from frozen rat brains was prepared as the source of membranes expressing CRF1 receptors used in binding assays. […]

For the compound `Cc1cc(C)c(Nc2nc(C)ncc2S(=O)(=O)c2ccc(C#N)cc2)c(C)c1` [Example 22, 4-[2-Methyl-4-(2,4,6-trimethylphenylamino)-pyrimidine-5-sulfonyl]-benzonitrile], the melting point was in the range of 258 to 260 °C. For the same compound, in data set [1], the Ki lay in the range of 500 to 5000 nM.

Compound `Cc1ccc(S(=O)(=O)c2cnc(C)nc2Nc2c(C)cc(C)cc2C)cc1` [Example 23, [2-Methyl-5-(toluene-4-sulfonyl)-pyrimidin-4-yl]-(2,4,6-trimethylphenyl)-amine] had a melting point of 202 to 204 °C. The compound further displayed a Ki in data set [1] of 100 to 500 nM.

`Cc1cc(C)c(Nc2nc(C)ncc2S(=O)(=O)c2ccc(-c3cncnc3)cc2)c(C)c1` [Example 24, [2-Methyl-5-(4-pyrimidin-5-yl-benzenesulfonyl)-pyrimidin-4-yl]-(2,4,6-trimethylphenyl)-amine]: the melting point is 210 to 212 °C. Also, the activity result in data set [1] was “d”.

In turn, `Cc1cc(C)c(Nc2nc(C)ncc2S(=O)(=O)c2ccc(-c3ncccn3)cc2)c(C)c1` [Example 25, [2-Methyl-5-(4-pyrimidin-2-yl-benzenesulfonyl)-pyrimidin-4-yl]-(2,4,6-trimethylphenyl)-amine] gave a melting point of 215 to 217 °C. Moreover, the Ki in data set [1] is not above 100 nM.

In turn, `Cc1cc(C)c(Nc2nc(C)ncc2S(=O)(=O)c2ccc(-c3ccncc3)cc2)c(C)c1` [Example 26, [2-Methyl-5-(4-pyridin-4-yl-benzenesulfonyl)-pyrimidin-4-yl]-(2,4,6-trimethylphenyl)-amine] returned a melting point of 232 to 234 °C. This compound also displayed a Ki in data set [1] of 500 to 5000 nM.

Compound `Cc1cc(C)c(Nc2nc(C)ncc2S(=O)(=O)c2ccc(-c3ccccn3)cc2)c(C)c1` [Example 27, [2-Methyl-5-(4-pyridin-2-yl-benzenesulfonyl)-pyrimidin-4-yl]-(2,4,6-trimethylphenyl)-amine] came in with a melting point of 201 to 203 °C. The same compound showed a Ki in data set [1] not above 100 nM.

For the compound `Cc1cc(C)c(Nc2nc(C)ncc2S(=O)(=O)c2ccc(-c3cccnc3)cc2)c(C)c1` [Example 28, [2-Methyl-5-(4-pyridin-3-yl-benzenesulfonyl)-pyrimidin-4-yl]-(2,4,6-trimethylphenyl)-amine], the melting point was in the range of 190 to 192 °C. Also, in data set [1], the Ki lay in the range of 500 to 5000 nM.

The compound `Cc1cc(C)c(Nc2nc(C)ncc2S(=O)(=O)c2ccc(C3=NCCN3)cc2)c(C)c1` [Example 29, {5-[4-(4,5-Dihydro-1H-imidazol-2-yl)-benzenesulfonyl]-2-methyl-pyrimidin-4-yl}-(2,4,6-trimethylphenyl)-amine] gave a melting point of 240 to 242 °C. Moreover, the activity entry in data set [1] was “d”.

`Cc1cc(C)c(Nc2nc(C)ncc2S(=O)(=O)c2ccc(-c3ncc[nH]3)cc2)c(C)c1` [Example 30, {5-[4-(1H-Imidazol-2-yl)-benzenesulfonyl]-2-methyl-pyrimidin-4-yl}-(2,4,6-trimethylphenyl)-amine]: the melting point was 282 to 284 °C. Further, the activity entry in data set [1] is listed as “d”.
